{
  "source": "paper PMC11874377",
  "about": "“Fungal-derived methyldeoxaphomins target Plasmodium falciparum segregation through the inhibition of PfActin1” (Proceedings of the National Academy of Sciences of the …, 2025)",
  "key": {"[1]": {"system": "human HepG2 hepatoma cells", "assay": "cells", "type": "cell-based", "conditions": "for EC50: Homo sapiens", "protocol": "(§1) The antiplasmodial activity of these analogs was assessed in P. falciparum asexual blood stage using a SYBR Green I-based assay. Compounds were tested in both the multidrug resistant line Dd2, and the chloroquine-sensitive line 3D7, to probe any potential for preexisting resistance. […] These methyldeoxaphomin analogs were also cross-screened for cytotoxicity in the human cell line HepG2 to determine their selectivity for the Plasmodium parasite. […] This effect was maintained with analog NPDG-F where both R1 and R2 were substituted with OH groups. […] In addition, the hydroxyl group at carbon 7 seems to be critical for function as a drastic loss of potency was found in NPDG-D as compared to B and C. […]\nCytotoxicity was assessed using an MTS (3-(4,5-Dimethylthiazol-2-yl)-5-(3-carboxymethoxyphenyl)-2-(4-sulfophenyl)-2H-tetrazolium) absorbance assay with human HepG2 hepatoma cells. Cells were maintained in MEM supplemented with 10%FBS, 1% Antibiotic/Antimycotic, 1 mM sodium pyruvate, and 0.15% sodium bicarbonate in a 5 % CO2, 95% air environment at 37°C. For the assay cells were seeded at a density of 2,250 cells per well on 384-well microtiter plates 24 h prior to compound addition. Following a 48-h incubation with compounds, MTS solution was added to wells and absorbance was read after 2-4 h on a Synergy Neo2 multimode reader (BioTek Winsooki, VT). Compound dose response curves and EC50 determination was performed using CDD Vault normalized to 5% triton and vehicle controls. […]"}, "[2]": {"system": "in vitro evolved NPDG-F-resistant Dd2-Pol δ clones (PfActin1 mutations)", "assay": "Resistant parasite phenotyping and cross resistance, SYBR green I EC50 assay, NPDG-F-resistant clones", "type": "cell-based, Plasmodium falciparum", "conditions": "for EC50: Plasmodium falciparum, read-out: EC50 (mean ± SEM)", "protocol": "Cloning by limiting dilution was then performed to isolate individual lines from the bulk population. Due to the multiple mutations identified in the first biological replicate, we isolated four clones from this bulk culture as compared to two clones each from the second and third replicates. These clones were phenotyped via a SYBR green I-based dose–response assay (Table 2 and Fig. 2B). […] The DNA of these clones was then extracted and subjected to whole-genome sequencing.\nTo investigate whether NPDG-F has the same mode of action as cytochalasin D, we tested our clones for sensitivity to both cytochalasin D and jasplakinolide.\nResistant parasite phenotyping and cross resistance measurement\nThe EC50 assay was performed at 1% parasitemia, 1% hematocrit with SYBR green I in 96-well plates. The highest final concentration of the methyldeoxaphomin NPDG-F was set at 100 μM. Briefly, the compound was subjected to a 3-fold serial dilution with ten dilution points. Three technical replicates were set up at each dilution point. The Dd2-Pol δ parent line and the resistant parasites at 2% hematocrit and 1% parasitemia were added to the drug media at 1:1 ratio. The plate was incubated at 37°C for 72 hours in a chamber filled with a hypoxic gas mixture (3% oxygen, 5% carbon dioxide, and 92% nitrogen). After incubation, the cells were lysis with lysis buffer (20 mM Tris-HCL, 0.08% saponin, 5 mM EDTA, and 0.8% Triton X-100) containing SYBR green I (10,000X, Thermo Fisher, cat # S7563) overnight. Fluorescence was measured at 485nm excitation and 530nm emission using a PHERAstar FSX plate reader (BMG Labtech, Germany). Dose response curves were graphed with Prism 9 Version 9.5.1. […]"}, "[3]": {"system": "P. falciparum chloroquine-sensitive line 3D7", "assay": "SYBR Green I-based antiplasmodial assay, asexual blood stage, 3D7", "type": "cell-based, Plasmodium falciparum", "protocol": "as §1\nPlasmodium blood stage culture\nParasite culture in the Chakrabarti lab was maintained following a modified Trager and Jensen protocol (Trager & Jensen, 1976) as previously described (Lee et al., 2021) with RPMI 1640 with 25 mM HEPES pH 7.4, 26 mM NaHCO3, 15 mg/L hypoxanthine, 0.5% Albumax II, 25 mg/L gentamycin, and 2% dextrose. Parasites were grown with human A+ erythrocytes obtained from Florida OneBlood. Cultures were kept in an incubator with 5% […]\nAntiplasmodial activity screening\nSYBR Green I-based fluorescence assay was performed as previously described (Lee et al., 2021) following protocols by Smilkstein et. al. (Smilkstein et al., 2004). Asynchronous Dd2 parasites were added to serially diluted compounds and incubated for 72 h at 5% CO2, 95% air at 37°C. Plates were then frozen at -80°C, thawed, and incubated for one hour with 1x SYBR Green I in a lysis buffer (20 mM Tris-HCL, 0.08% saponin, 5 mM EDTA, and 0.8% Triton X-100). Fluorescence was then read on a Synergy Neo2 multimode reader (BioTek Winsooki, VT). […]"}},
  "note": "“And” between values parts separate entries of the source, which are not always exact repeats. Equal values may be shown once. Read-outs that look alike come from different tables or passages of the source.",
  "data": [
    {"smiles": "C=C1C(C)C2C(Cc3ccccc3)NC(=O)C23C(=O)C=CC(O)C(O)C(C)CC(C)CC=CC3C1O", "note": "(stereo not shown) [Methyldeoxaphomin NPDG-F]", "values": [
      {"measurement": "cytotoxicity in HepG2 at the highest concentration tested", "setting": "[1]; 25 µM", "value": "no signs of cytotoxicity"},
      {"measurement": "Selectivity Index (SI)", "setting": "[1]; HepG2 EC50/(mean of Dd2 EC50, 3D7 EC50)", "value": "> 60"},
      {"measurement": "EC50", "setting": "[1]; HepG2, 48 h, means from triplicate experiments ± SEM, 48-h incubation, read-out: HepG2 EC50", "value": "> 25", "unit": "µM"},
      {"measurement": "EC50", "setting": "[1]; HepG2, average ± SEM of three replicates, read-out: HepG2: Average EC50", "value": "> 25", "unit": "µM"},
      {"measurement": "EC50", "setting": "[1]; HepG2, individual replicates, read-out: HepG2: EC50", "value": "> 25", "unit": "µM"},
      {"measurement": "average EC50 shift, clones from flasks 2 and 3", "setting": "[2]; A136S", "value": 3.5, "unit": "fold"},
      {"measurement": "average EC50 shift, clones from flask 1", "setting": "[2]; A171V/S and I290L clones", "value": 2.6, "unit": "fold"},
      {"measurement": "EC50", "setting": "[2]; DD2, clone 1-C7, A171S (8%), A171V (92%), I290L", "value": 11.5, "unit": "µM"},
      {"measurement": "EC50", "setting": "[2]; DD2, clone 1-D6, A171S (3%), A171V (97%), I290L", "value": 7.79, "unit": "µM"},
      {"measurement": "EC50", "setting": "[2]; DD2, clone 1-D7, A171S (22%), A171V (78%), I290L", "value": 9.02, "unit": "µM"},
      {"measurement": "EC50", "setting": "[2]; DD2, clone 1-F3, A171S (4%), A171V (96%), I290L", "value": 7.04, "unit": "µM"},
      {"measurement": "EC50", "setting": "[2]; DD2, clone 2-C4, A136S", "value": 14.1, "unit": "µM"},
      {"measurement": "EC50", "setting": "[2]; DD2, clone 2-F5, A136S", "value": 10.2, "unit": "µM"},
      {"measurement": "EC50", "setting": "[2]; DD2, clone 3-C3, A136S", "value": 12.7, "unit": "µM"},
      {"measurement": "EC50", "setting": "[2]; DD2, clone 3-C5, A136S", "value": 10, "unit": "µM"},
      {"measurement": "Fold change", "setting": "[2]; clone 1-C7 vs Dd2-Pol δ parent", "value": 3.3},
      {"measurement": "Fold change", "setting": "[2]; clone 1-D6 vs Dd2-Pol δ parent", "value": 2.3},
      {"measurement": "Fold change", "setting": "[2]; clone 1-D7 vs Dd2-Pol δ parent", "value": 2.6},
      {"measurement": "Fold change", "setting": "[2]; clone 1-F3 vs Dd2-Pol δ parent", "value": 2.1},
      {"measurement": "Fold change", "setting": "[2]; clone 2-C4 vs Dd2-Pol δ parent", "value": 4.1},
      {"measurement": "Fold change", "setting": "[2]; clone 2-F5 vs Dd2-Pol δ parent", "value": 3.0},
      {"measurement": "Fold change", "setting": "[2]; clone 3-C3 vs Dd2-Pol δ parent", "value": 3.7},
      {"measurement": "Fold change", "setting": "[2]; clone 3-C5 vs Dd2-Pol δ parent", "value": 2.9},
      {"measurement": "EC50", "setting": "[3]; Plasmodium falciparum, 3D7, abstract, read-out: EC50 in 3D7", "value": 0.29, "unit": "µM"},
      {"measurement": "EC50", "setting": "[3]; Plasmodium falciparum, 3D7, average ± SEM of three replicates, read-out: 3D7: Average EC50", "value": "0.29 ± 0.03", "unit": "µM"},
      {"measurement": "EC50", "setting": "[3]; Plasmodium falciparum, 3D7, individual replicates, read-out: 3D7: EC50", "value": 0.23, "unit": "µM"},
      {"measurement": "EC50", "setting": "[3]; Plasmodium falciparum, 3D7, means from triplicate experiments ± SEM, read-out: 3D7 EC50", "value": "0.29 ± 0.03", "unit": "µM"},
      {"measurement": "EC50", "setting": "[3]; individual replicates, read-out: 3D7: EC50", "value": "0.31 µM and 0.33 µM"}
    ]}
  ]
}
